Results reported in ChEMBL document CHEMBL1139098, “3H-[1,2,4]-Triazolo[5,1-i]purin-5-amine derivatives as adenosine A2A antagonists” (Bioorg Med Chem Lett, 2007).

How the values were obtained:
[1] = species on record: Homo sapiens; test: Selectivity for human adenosine A2A receptor over human adenosine A1 receptor
[2] = molecular target: Adenosine receptor A2a (Homo sapiens, UniProt P29274); test: Antagonist activity at human adenosine A2A receptor; assay type: functional
[3] = system: Rattus norvegicus; test: Effect on rat catalepsy model at 3 mg/kg, po after 4 hrs; assay type: functional
[4] = system: Rattus norvegicus; test: Effect on rat catalepsy model at 3 mg/kg, po after 1 hr; assay type: functional
[5] = system: Rattus norvegicus; test: Effect on rat catalepsy model at 1 mg/kg, po after 1 hr; assay type: functional
[6] = AUC in rat catalepsy model at 3.0 mg/kg, po; assay type: ADME, organism-based; parameters: dose 3 mg/kg, route oral; conditions: in vivo
[7] = system: Rattus norvegicus; test: Effect on rat catalepsy model at 1 mg/kg, po after 4 hrs; assay type: functional

Chain of Adenosine receptor A2a (P29274 whole entry): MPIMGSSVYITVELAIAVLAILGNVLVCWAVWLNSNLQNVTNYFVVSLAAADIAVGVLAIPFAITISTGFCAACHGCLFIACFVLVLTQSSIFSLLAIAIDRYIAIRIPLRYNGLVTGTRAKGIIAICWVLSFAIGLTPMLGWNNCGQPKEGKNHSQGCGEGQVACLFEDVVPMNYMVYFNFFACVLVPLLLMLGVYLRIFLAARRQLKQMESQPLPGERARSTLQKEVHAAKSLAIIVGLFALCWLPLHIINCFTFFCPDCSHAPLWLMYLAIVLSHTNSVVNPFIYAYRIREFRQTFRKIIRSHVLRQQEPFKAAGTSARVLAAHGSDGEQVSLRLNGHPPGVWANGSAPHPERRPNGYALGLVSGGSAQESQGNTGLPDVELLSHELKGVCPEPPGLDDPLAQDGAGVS

Selectivity ratio [1] | Ki [2] [nM] | SMILES | also measured
218 | 0.4 | COCCOc1ccc(N2CCN(CCn3cnc4c3nc(N)n3nc(-c5ccco5)nc43)CC2)c(C(F)(F)F)c1 | 
181 | 10 | COCCOc1ccc(N2CCN(CCn3cnc4c3nc(N)n3nc(-c5ccccc5C(F)(F)F)nc43)CC2)cc1 | 
37 | 6.3 | Nc1nc2c(ncn2CCN2CCOCC2)c2nc(-c3ccco3)nn12 | 
9 | 1.7 | Nc1nc2c(ncn2Cc2ccccc2Cl)c2nc(-c3ccco3)nn12 | 
76 | 20.5 | COCCOc1ccc(N2CCN(CCn3cnc4c3nc(N)n3nc(-c5ccccc5C)nc43)CC2)cc1 | 
517 | 0.8 | COCCOc1ccc(N2CCN(CCn3cnc4c3nc(N)n3nc(-c5ccco5)nc43)CC2)c(F)c1 | 
182 | 1.7 | Nc1nc2c(ncn2CCN2CCN(c3ccccc3)CC2)c2nc(-c3ccco3)nn12 | 
162 | 1 | Cc1ccc(N2CCN(CCn3cnc4c3nc(N)n3nc(-c5ccco5)nc43)CC2)nc1 | 
30 | 4.6 | Nc1nc2c(ncn2Cc2ccccc2C(F)(F)F)c2nc(-c3ccco3)nn12 | 
7 | 4.6 | Nc1nc2c(ncn2Cc2ccccc2Br)c2nc(-c3ccco3)nn12 | 
91 | 3.7 | COCCOc1ccc(N2CCN(CCn3cnc4c3nc(N)n3nc(-c5ccccc5)nc43)CC2)cc1 | 

Continued, compound first:

SMILES | Selectivity ratio [1] | Ki [2] [nM] | also measured
Nc1nc2c(ncn2CCN2CCN(c3ncc(F)cn3)CC2)c2nc(-c3ccco3)nn12 | 378 | 1.4 | 
Nc1nc2c(ncn2CCN2CCC(c3ccc(F)cc3)CC2)c2nc(-c3ccco3)nn12 | 196 | 0.9 | 
Nc1nc2c(ncn2CCN2CCN(c3ccc(Cl)cn3)CC2)c2nc(-c3ccco3)nn12 | 333 | 0.9 | 
COc1ccc(N2CCN(CCn3cnc4c3nc(N)n3nc(-c5ccco5)nc43)CC2)cc1 | 1700 | 0.1 | 
COCCOc1ccc(N2CCN(CCn3cnc4c3nc(N)n3nc(-c5ccccc5F)nc43)CC2)cc1 | 15 | 9.3 | 
Nc1nc2c(ncn2CCN2CCN(c3ccc(F)cc3F)CC2)c2nc(-c3ccco3)nn12 | 88 | 0.7 | 
Nc1nc2c(ncn2Cc2ccccc2)c2nc(-c3ccco3)nn12 | 17 | 1.5 | 
COCCOc1ccc(N2CCN(CCn3cnc4c3nc(N)n3nc(-c5ccco5)nc43)CC2)cc1 | 669 | 0.9 | Activity [3]: 50%; Activity [4]: 80%; Activity [5]: 55%; AUC [6]: 0.524 µg·h/mL; Activity [7]: 50%
Nc1nc2c(ncn2CCN2CCN(c3nccs3)CC2)c2nc(-c3ccco3)nn12 | 138 | 1.7 | 
COCCOc1ccc(N2CCN(CCn3cnc4c3nc(N)n3nc(-c5cccc(F)c5)nc43)CC2)cc1 | 83 | 2 | 
COCCOc1ccc(C2CCN(CCn3cnc4c3nc(N)n3nc(-c5ccco5)nc43)CC2)cc1 | 519 | 0.7 | 
Nc1nc2c(ncn2CCN2CCN(c3cccc(Cl)c3)CC2)c2nc(-c3ccco3)nn12 | 371 | 0.4 | 
Nc1nc2c(ncn2CCc2ccccc2)c2nc(-c3ccco3)nn12 | 33 | 4.1 | 
CCCn1cnc2c1nc(N)n1nc(-c3ccco3)nc21 | 50 | 5.9 | 
COCCOc1ccc(N2CCN(CCn3cnc4c3nc(N)n3nc(-c5ccccn5)nc43)CC2)cc1 | 108 | 12.6 | 
COCCOc1ccc(N2CCN(CCn3cnc4c3nc(N)n3nc(-c5cccc[n+]5[O-])nc43)CC2)cc1 | 17 | 89.7 | 
Nc1nc2c(ncn2CCN2CCN(c3ccc(Cl)cc3F)CC2)c2nc(-c3ccco3)nn12 | 403 | 0.3 | 
